Laboratory results: patent publication US5308864A, “6-(hydronaphtyl-1-ethyl)-4-hydroxy-3,4,5,6-tetrahydro-2H-pyran-2-ones and the corresponding hydroxy acids” (British Bio-Technology Limited, priority 1989, dated 1994)
pIC50: −log10 of the molar value.

How the values were obtained:
HMG-CoA reductase = target: T1, HMG-CoA reductase (Rattus norvegicus, UniProt P51639); test: In vitro determination of inhibitory potential of HMG-CoA reductase inhibitors (Test A, rat liver microsomal enzyme); format: biochemical; conditions: HMG-CoA reductase from rat liver microsomes; inhibitors converted to sodium salts
T1 construct: from tissue; host or cells: rat liver microsomes (cholestyramine-induced)
T1 sequence (P51639 1-887): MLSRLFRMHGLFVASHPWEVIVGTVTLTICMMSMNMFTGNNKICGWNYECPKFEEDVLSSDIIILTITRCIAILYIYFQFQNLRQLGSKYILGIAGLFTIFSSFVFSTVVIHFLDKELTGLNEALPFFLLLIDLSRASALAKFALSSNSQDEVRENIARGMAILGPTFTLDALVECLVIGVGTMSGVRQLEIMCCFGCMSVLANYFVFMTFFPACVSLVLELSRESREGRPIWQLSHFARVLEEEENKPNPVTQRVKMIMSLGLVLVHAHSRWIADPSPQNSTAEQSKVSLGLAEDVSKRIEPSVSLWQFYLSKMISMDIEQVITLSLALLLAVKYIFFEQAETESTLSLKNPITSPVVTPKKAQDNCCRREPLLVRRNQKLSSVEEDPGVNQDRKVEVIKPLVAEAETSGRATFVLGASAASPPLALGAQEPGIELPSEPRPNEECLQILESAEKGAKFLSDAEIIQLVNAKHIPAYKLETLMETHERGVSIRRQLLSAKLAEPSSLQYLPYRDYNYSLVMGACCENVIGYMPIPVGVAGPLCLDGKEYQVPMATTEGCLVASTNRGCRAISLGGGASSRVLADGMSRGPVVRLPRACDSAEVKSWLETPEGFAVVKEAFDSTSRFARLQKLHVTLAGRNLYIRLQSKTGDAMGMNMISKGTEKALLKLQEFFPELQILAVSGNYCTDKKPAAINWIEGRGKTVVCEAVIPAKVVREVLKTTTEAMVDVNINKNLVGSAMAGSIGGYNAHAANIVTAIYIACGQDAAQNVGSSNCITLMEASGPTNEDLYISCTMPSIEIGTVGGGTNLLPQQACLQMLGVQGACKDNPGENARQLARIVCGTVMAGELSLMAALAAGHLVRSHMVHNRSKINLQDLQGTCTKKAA
Method: HMG-CoA reductase was induced in rats by feeding a normal diet supplemented with 3% cholestyramine resin for one week prior to sacrifice. […] Briefly, the livers were immediately placed in ice-cold buffer I (see below) and homogenised in a Potter-Elvehjem type glass/TEFLON homogeniser (10 passes at 1000 rpm). […] The supernatant was centrifuged at 100,000×g for 75 minutes, the microsomal pellet resuspended in buffer II (see below) and centrifuged at 100,000×g for 75 minutes. The resultant pellet was stored at -70° C. until required for assay purposes.
Membrane bound enzyme isolated as above is used for determining the activity of inhibitors. The assay is performed in a total volume of 300 μl in 100 mM KPO4 pH 7.2 buffer, containing 3 mM MgCl2, 5 mM glucose-6-phosphate, 10 mM reduced glutathione, 1mM NADP, 1 unit glucose-6-phosphate dehydrogenase, and 1 mg/ml BSA, with resuspended enzyme. Putative inhibitors are converted to sodium salts, then dissolved in dimethylsulphoxide and 10 μl aliquots added to the incubation.
The assay is pre-incubated at 37° C. for 10 minutes and initiated by the addition of 0.1 μCi 3-hydroxy-3-methyl-[3-^14 C]glutaryl coenzyme A (52 Ci/Mole) followed by incubating the complete reaction at 37° C. for 10 minutes. At the end of this period the reaction is stopped by adding 300 μl of a 10 mM mevalonolactone solution in 0.1 M hydrochloric acid and the mevalonic acid product allowed to lactonise for a further period of 30 minutes. The product is then isolated by chromatography using Bio-Rex 5 resin and the enzyme activity quantified by liquid scintillation spectrophotometry.
Appropriate controls are included in the assay and IC50 values obtained by graphical means.

[1] = system: cholesterol biosynthesis in Human hepatoma (HEP G2) cells; test: Assay for the inhibition of cholesterol biosynthesis in cultured cells (Test B, HEP G2); format: cell-based; conditions: 2-14C-acetate incorporation, HEP G2, 3 hours at 37° C.
Method: ASSAY FOR THE INHIBITION OF CHOLESTEROL BIOSYNTHESIS IN CULTURED CELLS
Human hepatoma (HEP G2) or fibroblastic (HES-9) cells were grown in Dulbecco's modified Eagle's medium (DMEM) with 10% foetal calf serum, in 6 cm tissue culture dishes until approaching confluence (approximately 4 days). The medium was changed to DMEM with 1% foetal calf serum 24 hours prior to experimentation.
Test compounds that are salts were dissolved in aqueous, physiological buffer. Lactones and esters were dissolved in dimethylsulphoxide.
Test compound were added to the cell monolayers concurrently with 2-^14 C-acetate (5 μCi/ml of incubation volume); control samples receiving vehicle together with radioisotope. The incubation was continued for 3 hours at 37° C.
The IC50 for inhibition of sterol synthesis by test compounds was measured from plots of % inhibition (compared to controls) versus log concentration, using at least 5 concentrations of inhibitor.
This assay, therefore, measures the ability of test substances to inhibit intracellular synthesis of cholesterol.

[2] = HepG2, inhibition of sterol synthesis

pIC50 (HMG-CoA reductase) | SMILES | pIC50 [1, 2] | pIC50 ([1]; HepG2, after hydrolysis, inhibition of sterol synthesis)
7.52 | CC[C@H](C)C(=O)O[C@H]1C[C@@H](C)C[C@@H]2C=C[C@H](C)[C@H](CC[C@@H]3C[C@@H](O)CC(=O)O3)[C@@H]12 [Dihydromevinolin, reference compound] | 7.40 | –
– | C/C=C/[C@@H]1C[C@H](OC(=O)[C@@H](C)CC)[C@@H]2[C@@H](CC[C@@H]3C[C@@H](O)CC(=O)O3)[C@@H](C)C=C[C@H]2C1 [Compound G, (1S,2S,4aR,6S,8S,8aS,4'R,6'R,2"S)6'-{2-(1,2,4a,5,6,7,8,8a-octahydro-2-methyl-8[(2"-methyl-1"-oxobutyl)oxy]-6-[(E)-prop-1-enyl]-1-naphthalenyl)ethyl}-tetrahydro-4'-hydroxy-2H-pyran-2'-one] | – | 7.60
8.52 | C/C=C/[C@@H]1C[C@H](OC(=O)C(C)(C)CC)[C@@H]2[C@@H](CC[C@@H](O)C[C@@H](O)CC(=O)O)[C@@H](C)C=C[C@H]2C1 [Compound N, Sodium (1S,2S,4aR,6S,8S,8aS,3'R,5'R)-7'-(1,2,4a,5,6,7,8,8a-octahydro-2-methyl-8-[(2"-dimethyl-1"-oxobutyl)oxy]-6-[(E)-prop-1enyl]-1-naphthalenyl)-3',5'-dihydroxyheptanoate] | 8.15 | –
7.82 | C/C=C\[C@@H]1C[C@H](OC(=O)[C@@H](C)CC)[C@@H]2[C@@H](CC[C@@H](O)C[C@@H](O)CC(=O)O)[C@@H](C)C=C[C@H]2C1 [Compound B, Sodium (1S,2S,4aR,6S,8S,8aS,3'R,5'R,2"S)-7'-(1,2,4a, 5,6,7,8,8a-octahydro-2-methyl-8[(2"-methyl-1"-oxobutyl)oxy]-6-[(Z)-prop-1-enyl]-1-naphthalenyl)-3',5'-dihydroxyheptanoate] | 7.22 | –
